# System: not listed separately
# Assay: Partition coefficient, log D of the compound at pH 7.4 by chromatographic method
# Conditions: octanol/water
row,SMILES,chromatographic logD
1,CS(=O)(=O)c1ccc(N2CCN(C(=O)C(c3ccc(Cl)cc3)c3cccnc3)CC2)cc1 (stereo unspecified),3
2,N#Cc1ccc(C(C(=O)N2CCN(c3ccc(C(F)(F)F)cc3)CC2)c2cccnc2)cc1 (stereo unspecified),3.8
3,N#Cc1ccc(C(C(=O)N2CCN(c3ccc(C(F)(F)F)cn3)CC2)c2cccnc2)cc1 (stereo unspecified),3.5
4,O=C(C(c1ccc(Cl)cc1)c1cccnc1)N1CCN(c2ccc(C(F)(F)F)nc2)CC1 (stereo unspecified),3.7
5,CS(=O)(=O)c1ccc(N2CCC(N(c3ccc(C#N)cc3)c3cccnc3)CC2)cc1,3
6,Cc1ccccc1CN1CCC(N(c2ccc(C(F)(F)F)cc2)c2cccnc2)CC1,> 5.3
7,CC(C)(C)CC(=O)N1CCC(N(c2ccc(Cl)cc2)c2cccnc2)CC1,4.2

# System: not listed separately
# Assay: Kinetic aqueous solubility of the compound in phosphate buffer at pH 6.5 by nephelometric analysis
# Conditions: not given
row,SMILES,solubility kinetic [µg/mL]
1,CS(=O)(=O)c1ccc(N2CCN(C(=O)C(c3ccc(Cl)cc3)c3cccnc3)CC2)cc1 (stereo unspecified),6.3
2,N#Cc1ccc(C(C(=O)N2CCN(c3ccc(C(F)(F)F)cc3)CC2)c2cccnc2)cc1 (stereo unspecified),3.1
3,N#Cc1ccc(C(C(=O)N2CCN(c3ccc(C(F)(F)F)cn3)CC2)c2cccnc2)cc1 (stereo unspecified),6.3
4,O=C(C(c1ccc(Cl)cc1)c1cccnc1)N1CCN(c2ccc(C(F)(F)F)nc2)CC1 (stereo unspecified),6.3
5,CS(=O)(=O)c1ccc(N2CCC(N(c3ccc(C#N)cc3)c3cccnc3)CC2)cc1,< 1.6
6,Cc1ccccc1CN1CCC(N(c2ccc(C(F)(F)F)cc2)c2cccnc2)CC1,3.1
7,CC(C)(C)CC(=O)N1CCC(N(c2ccc(Cl)cc2)c2cccnc2)CC1,6.3

# Target: Cytochrome P450 3A4 (Homo sapiens, UniProt P08684)
# Sequence (P08684 whole entry): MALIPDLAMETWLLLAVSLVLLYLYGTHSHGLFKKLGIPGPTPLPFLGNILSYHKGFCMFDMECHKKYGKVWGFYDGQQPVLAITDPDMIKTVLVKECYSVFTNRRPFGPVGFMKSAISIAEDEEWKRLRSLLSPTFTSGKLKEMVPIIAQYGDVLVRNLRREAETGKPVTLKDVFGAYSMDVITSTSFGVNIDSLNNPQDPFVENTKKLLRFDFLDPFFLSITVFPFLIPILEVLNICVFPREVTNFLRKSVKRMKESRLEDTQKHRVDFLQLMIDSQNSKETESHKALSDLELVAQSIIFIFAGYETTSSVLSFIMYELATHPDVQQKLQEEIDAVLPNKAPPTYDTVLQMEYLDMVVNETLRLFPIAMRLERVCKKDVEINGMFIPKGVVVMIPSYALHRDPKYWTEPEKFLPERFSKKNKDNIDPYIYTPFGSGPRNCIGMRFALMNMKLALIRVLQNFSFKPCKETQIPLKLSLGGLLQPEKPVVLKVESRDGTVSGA
# Assay: Inhibition of CYP3A4 in human liver microsomes assessed as 6beta-hydroxylation of testosterone
# Conditions: not given
row,SMILES,IC50 [nM]
1,CS(=O)(=O)c1ccc(N2CCN(C(=O)C(c3ccc(Cl)cc3)c3cccnc3)CC2)cc1 (stereo unspecified),4000
2,N#Cc1ccc(C(C(=O)N2CCN(c3ccc(C(F)(F)F)cc3)CC2)c2cccnc2)cc1 (stereo unspecified),> 20000
3,N#Cc1ccc(C(C(=O)N2CCN(c3ccc(C(F)(F)F)cn3)CC2)c2cccnc2)cc1 (stereo unspecified),> 20000
4,O=C(C(c1ccc(Cl)cc1)c1cccnc1)N1CCN(c2ccc(C(F)(F)F)nc2)CC1 (stereo unspecified),> 20000
5,CS(=O)(=O)c1ccc(N2CCC(N(c3ccc(C#N)cc3)c3cccnc3)CC2)cc1,12000

# System: Trypanosoma cruzi
# Assay: Antitrypanosomal activity against Trypanosoma cruzi Tulahuen 6 amastigotes infected in rat L6 cells after 96 hrs by colorimetric method
# Type: functional, organism-based
# Conditions: Tulahuen 6, L6, 96 h
row,SMILES,IC50 [nM]
1,CS(=O)(=O)c1ccc(N2CCN(C(=O)C(c3ccc(Cl)cc3)c3cccnc3)CC2)cc1 (stereo unspecified),2
2,N#Cc1ccc(C(C(=O)N2CCN(c3ccc(C(F)(F)F)cc3)CC2)c2cccnc2)cc1 (stereo unspecified),12
3,N#Cc1ccc(C(C(=O)N2CCN(c3ccc(C(F)(F)F)cn3)CC2)c2cccnc2)cc1 (stereo unspecified),12
4,O=C(C(c1ccc(Cl)cc1)c1cccnc1)N1CCN(c2ccc(C(F)(F)F)nc2)CC1 (stereo unspecified),8
5,CS(=O)(=O)c1ccc(N2CCC(N(c3ccc(C#N)cc3)c3cccnc3)CC2)cc1,2

# System: Mus musculus
# Assay: Toxicity in Swiss mouse at 20 mg/kg, po
# Conditions: in vivo
row,SMILES,Activity
1,CS(=O)(=O)c1ccc(N2CCN(C(=O)C(c3ccc(Cl)cc3)c3cccnc3)CC2)cc1 (stereo unspecified),Non-toxic
2,N#Cc1ccc(C(C(=O)N2CCN(c3ccc(C(F)(F)F)cc3)CC2)c2cccnc2)cc1 (stereo unspecified),Non-toxic
3,N#Cc1ccc(C(C(=O)N2CCN(c3ccc(C(F)(F)F)cn3)CC2)c2cccnc2)cc1 (stereo unspecified),Non-toxic
4,O=C(C(c1ccc(Cl)cc1)c1cccnc1)N1CCN(c2ccc(C(F)(F)F)nc2)CC1 (stereo unspecified),Non-toxic
5,CS(=O)(=O)c1ccc(N2CCC(N(c3ccc(C#N)cc3)c3cccnc3)CC2)cc1,Non-toxic

# System: not listed separately
# Assay: Kinetic aqueous solubility of the compound in phosphate buffer at pH 2 by nephelometric analysis
# Conditions: phosphate buffer
row,SMILES,solubility kinetic [µg/mL]
1,CS(=O)(=O)c1ccc(N2CCN(C(=O)C(c3ccc(Cl)cc3)c3cccnc3)CC2)cc1 (stereo unspecified),> 100
2,N#Cc1ccc(C(C(=O)N2CCN(c3ccc(C(F)(F)F)cc3)CC2)c2cccnc2)cc1 (stereo unspecified),> 100
3,N#Cc1ccc(C(C(=O)N2CCN(c3ccc(C(F)(F)F)cn3)CC2)c2cccnc2)cc1 (stereo unspecified),50
4,O=C(C(c1ccc(Cl)cc1)c1cccnc1)N1CCN(c2ccc(C(F)(F)F)nc2)CC1 (stereo unspecified),50
5,CS(=O)(=O)c1ccc(N2CCC(N(c3ccc(C#N)cc3)c3cccnc3)CC2)cc1,25
6,Cc1ccccc1CN1CCC(N(c2ccc(C(F)(F)F)cc2)c2cccnc2)CC1,> 100
7,CC(C)(C)CC(=O)N1CCC(N(c2ccc(Cl)cc2)c2cccnc2)CC1,> 100

# From ChEMBL document CHEMBL3102812 (J Med Chem, 2013)
